Read-outs that look alike come from different tables or passages of the source.
Key:
[1] = tested on: bovine aortic endothelial cells (ECs); assay: EC QCM biosensor: Δf and ΔR shifts of attached endothelial cells after drug addition; type: cell-based; settings: for EC50: Bos taurus, Endothelial cell
Excerpt: The details of how these measurements were made have been presented previously. Basically, an AT cut quartz crystal of resonant frequency 8.85 MHz with gold electrode (5 mm diameter)was used in a cylindrical Teflon cell (Seiko EG&G). The crystal was sandwiched between two silicone O-rings to allow only one side of the electrode to be exposed to the media and serum containing solution (FIG. 1B). The QCM device was placed within a large petri dish, filled with distilled water, at a level well […] the water surface. This water reservoir allowed humidity to be maintained, preventing evaporation from the QCM cell. The QCM was covered with a petri dish cover plate following placement inside a 37° C. temperature regulated cell incubator. A Model QCA 917 Quartz Crystal Analyzer System (Seiko EG&G), comprised of a Main Unit and Oscillator, was used for the simultaneous measurement of the resonant frequency (f) and resonance admittance (A). Before assembly in the well holder, the gold QCM surface was treated chemically to render it hydrophilic. A drop of 1:3 H2O2 (30%): H2SO4 at 80° C. was placed upon and covered the gold surface for 5 minutes, followed by rinsing with distilled water and drying under N2. This procedure was repeated three times. After sterilization and washing with water and PBS, 52 μl of media and 10% Calf Serum (CS) was added onto the QCM electrode and the entire holder was put into a humidified CO2 incubator controlled at 10% CO2. The f and admittance (A) values were automatically monitored at 1 minute intervals using a PC and WinWedge 32, version 3.0 Software (TAL Technologies®) and the stable values at 2 hour were taken as reference values before the addition of cells. After 2 hours, 250 μl media +10% CS containing a specific number of cells was added evenly to the medium surface. Then f and A values were automatically monitored during the process of EC sedimentation to the crystal surface, and during their impact and spreading over a 20 hr period to achieve steady state attachment. In the data reduction phase, values of A, in μS were converted into motional resistance, R, in units of Ω, using the relationship R=10^6/A. Nocodazole achieved its final concentration by being added in a pre-warned 50 μl volume of media and serum, following removal of 50 μl from the top of the EC QCM biosensor well holder. Following the conclusion of each experiment, trypsinable ECs adhering to the gold QCM surface were determined as described below. Bovine aortic endothelial cells (BAEs) were obtained from Clonetics, Inc., and were maintained as stock cultures in DMEM-10% CS, as previously described. BAEs were not used beyond passage 22. For experimental treatments, ECs were trypsinized, washed with PBS, and precise counts of the number of cells were made using an electronic cell counter made by Coulter, Inc., following resuspension in full media (250 μl). At the end of a QCM experiment, cells firmly attached were determined via trypsinization assay and an electronic counter. This protocol involved the following steps. Media was collected from the QCM (M). The QCM was gently washed with 100 μl PBS (W). After 125 μl trypsin (0.05% w/v trypsin, 0.53 mM EDTA, in Hank's Buffered salt solution) was added and incubated for 6 min. at 37° C., this fraction was collected (T1). Following a second trypsinization wash, identical to the first, this fraction was collected (T2). Aliquots from all of the four steps (M, W, T1, T2) were electronically counted using Coulter counting. After trypsinization, the QCM electrode was washed successively with PBS, water, ethanol, then detached from the well holder. It was then cleaned sequentially with a number of reagents to remove all residual ECM and cell debris, as we have previously described. Cleaned in this way, the QCM was used repeatedly with good reproducibility of its initial f and R values, due to complete protein removal from the QCM surface.

[2] = tested on: bovine aortic endothelial cells (ECs); assay: Fluorescence light microscopy of actin-stained ECs on the gold QCM crystal surface; type: cell-based; settings: 15 μM (FIG. 8B), four hours treatment
Experimental: For actin localization in the multichamber wells or in the QCM device, media was aspirated and replaced with 3.5% formaldehyde. The cells were fixed for 15 mins at room temperature, washed with PBS and then incubated with rhodamine-labeled phalloidin (0.165 μM in PBS) for 30 mins at room temperature. The cells were then washed with PBS and coverslipped with Cytoseal mounting medium (VWR Scientific). The cells were examined using an Olympus BH2 CTD microscope, and the images were digitized using a CCD camera and imported into Photoshop 5.0 of Adobe® and using a Gateways® P11-390 computer. Actin localization within cells grown and or treated with nocodazole in the QCM. We wished to examine the ECs directly attached to the QCM surface with and without nocodazole treatment. Since the […] needed to be chemically fixed on the surface, we needed to sacrifice crystals for this purpose. Two different crystals were used. The first crystal was used to visualize ECs growing on the gold QCM surface at the steady state condition. At the conclusion of the QCM measurement, cells on the crystals were stained to localize actin microfilaments. In the first experiment, ECs were added to the crystal and were allowed to attach for 24 hrs to achieve their normal characteristic Δf and ΔR shifts. […]

[3] = tested on: bovine aortic endothelial cells (ECs); assay: Fluorescence light microscopy of actin-stained ECs in multichamber LabTek slides (QCM simulation); type: cell-based; settings: for EC shape and morphology (actin stain): 4 hr treatment
Experimental: To acquire detailed information about the change in cell shape and attachment while ECs were exposed to varying nocodazole concentrations, we performed a simulation experiment. 76,400 ECs were plated into multichamber LabTek slides and were allowed to attach for 24 hrs in normal growth media. This number of cells simulates the cell surface density in the QCM device. 50 μL of media was then removed and replaced with 50 μL of media with or without concentrated nocodazole. In duplicate, cells either received no nocodazole (control) or final concentrations of 0.33, 1, 2, 6 or 15 μM nocodazole. After four hours, the cells were fixed and stained to reveal the actin microfilament arrangement within the cells, as described below. These studies were performed to detect the shape and attachment changes in ECs that would roughly correspond to a time when the QCM detected maximal shifts in f and R values. […] For actin localization in the multichamber wells or in the QCM device, media was aspirated and replaced with 3.5% formaldehyde. The cells were fixed for 15 mins at room temperature, washed with PBS and then incubated with rhodamine-labeled phalloidin (0.165 μM in PBS) for 30 mins at room temperature. The cells were then washed with PBS and coverslipped with Cytoseal mounting medium (VWR Scientific). The cells were examined using an Olympus BH2 CTD microscope, and the images were digitized using a CCD camera and imported into Photoshop 5.0 of Adobe® and using a Gateways® P11-390 computer.

[4] = tested on: bovine aortic endothelial cells (ECs); settings: 3 ng/ml, over 3 days following administration; cited from earlier work
[5] = 15 μM, ECs beginning to detach from crystal surface
[6] = fluorescence light microscope observations

| Compound | initial maximum increase in ΔR after drug addition ([1]; 2.0 μM final concentration, 20,000 ECs added, steady state biosensor) | Δf drop after drug addition ([1]; 2.0 μM final concentration, over the next 4 hours, 20,000 ECs added, steady state biosensor) | Δ(ΔR) value at 15 μM relative to that measured at 6 μM [1, 5] | Δ(Δf) value at 15 μM relative to that measured at 6 μM [1, 5] | EC50 ([1]; as printed in the conclusion, read-out: PC50 (midpoint value of dose effect curve)) | EC50 ([1]; dose curves of Δ(Δf) and Δ(ΔR) vs log concentration, 0.11-6 μM, read-out: PC50 (effective change in cellular attachment in 50% of the ECs, transition midpoint of dose curve)) | EC shape and morphology on QCM crystal (actin stain) [2] | EC shape and morphology (actin stain) ([3]; 0.33 μM) | EC shape and morphology (actin stain) ([3]; 1 and 2 μM) | EC shape and morphology (actin stain) ([3]; 6 and 15 μM) | concentration at which changes in EC intercellular contacts and progressive cell rounding begin [3, 6] | concentration by which changes in EC intercellular contacts and cell rounding saturate [3, 6] | growth stimulation of ECs on the QCM biosensor [4] |
| --- | --- | --- | --- | --- | --- | --- | --- | --- | --- | --- | --- | --- | --- |
| COC(=O)Nc1nc2ccc(C(=O)c3cccs3)cc2[nH]1 [nocodazole] | 14 Ω | 360 Hz | 50% | 50% | 900 nM | ~900 nM | lost cell-cell contact | smaller than control cells | the monolayer became disrupted | significantly reduced cellular area | around 330 nM | ≤ 6 µM |  |
| Fibroblast Growth Factor |  |  |  |  |  |  |  |  |  |  |  |  | stimulated the ECs to divide |

Source: patent publication US20030008335A1, “Biosensor for drug candidates” (priority 2001, published 2003)
